Target: T1, MIF (Homo sapiens, UniProt P14174)
T1 construct: (catalogue number not given); host or cells: E. coli BL21 Star (DE3)
T1 sequence (P14174 2-115 limits assumed): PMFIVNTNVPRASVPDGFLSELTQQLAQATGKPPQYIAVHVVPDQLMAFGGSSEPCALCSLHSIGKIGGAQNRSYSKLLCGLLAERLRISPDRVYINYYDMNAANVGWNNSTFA
Assay: Confirmation of the binding of Compound A and MIF (compound beads pull-down from THP-1 cell lysate, Western blotting)
Conditions: elution with 0.5 mmol/L Compound A, anti-MIF Western blotting
Experimental: THP-1 cells were cultured for about 6 hours in PRMI 1640 medium containing 1% fetal bovine serum and 50 μmol/L 2-mercaptoethanol. Then, lipopolysaccharide (E. coli 0127:B8, Sigma Aldrich) was added to the culture plate at a final concentration of 1 μg/mL, and the cells were cultured for about 30 minutes. The cells were harvested and washed with phosphate buffered saline, and mixed with about 2-fold volume of cell lysis buffer (20 mmol/L Tris, 150 mmol/L sodium chloride, 1 mmol/L magnesium chloride, 0.1% NP-40, 1 mmol/L dithiothreitol, 0.1% Triton X-100, pH 7.4). The resultant mixture was placed on ice with occasional stirring for about 30 minutes, and was centrifuged (20000×g, 4° C., 8 minutes). The separated and gained supernatant was used as cell lysate. Protein concentration of the cell lysate was measured with BCA protein assay reagent (Thermo Fisher Scientific K.K.) in accordance with its manual.
Immobilization of 4-amino-N-[7-[(methylsulfonyl)amino]-4-oxo-6-phenoxy-4H-1-benzopyran-3-yl]butanamide hydrochloride on Dynabeads M-270 Carboxylic Acid (Life Technologies Corporation) was performed by a general method. […]

## CS(=O)(=O)Nc1cc2occ(NC=O)c(=O)c2cc1Oc1ccccc1 [Compound A, N-[7-[(methylsulfonyl)amino]-4-oxo-6-phenoxy-4H-1-benzopyran-3-yl]formamide]
  Binding of MIF to Compound A: specifically binds

Reference: patent US9918963B2, “Therapeutic agent for disease based on inhibitory effect of macrophage migration inhibitory factor” (TOYAMA CHEMICAL CO., LTD., priority 2013, dated 2018)
